In publication doi:10.1101/504811v1 (biorxiv, 2018) one finds KM data, which are given here for one compound.

For the assay, the target named is T1, MPH-wt (Pseudomonas sp. WBC-3, UniProt Q841S6).
T1 sequence (Q841S6 36-331): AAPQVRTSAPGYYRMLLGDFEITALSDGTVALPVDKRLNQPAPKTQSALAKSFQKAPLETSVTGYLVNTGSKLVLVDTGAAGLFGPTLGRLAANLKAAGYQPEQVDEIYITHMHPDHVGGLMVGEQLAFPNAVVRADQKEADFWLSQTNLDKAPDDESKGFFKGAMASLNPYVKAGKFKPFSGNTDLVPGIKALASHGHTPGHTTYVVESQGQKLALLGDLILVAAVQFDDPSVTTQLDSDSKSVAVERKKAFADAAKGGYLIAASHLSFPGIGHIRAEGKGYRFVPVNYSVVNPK
In words: hydrolysis kinetics, purified enzyme. Type of assay: biochemical.

For `O=C1CCc2ccccc2O1` [dihydrocoumarin], the KM result is given as “only moderate DHCH activity”.
